Test results: the NIST ThermoML archive (doi:10.1016/j.fluid.2009.04.006)
“And” between values parts separate entries of the source, which are not always exact repeats. Equal entries are not always repeated.

Conditions: Liquid, Closed cell (Static) method

NCCOCCOCCN [1,2-bis(2-aminoethoxy)ethane]
Conditions	vapor or sublimation pressure [kPa]
292.92 K	0.00358
302.88 K	0.00757
312.87 K	0.0156
322.91 K	0.0297
332.89 K	0.0545
342.89 K	0.104
353.02 K	0.184

OCCNCc1ccccc1 [2-benzylaminoethanol]
Conditions	vapor or sublimation pressure
292.82 K	0.000782 kPa
312.85 K	0.0052 kPa
332.88 K	0.0271 kPa
332.89 K	0.027 kPa
352.92 K	0.114 kPa
362.91 K	0.239 kPa and 0.231 kPa

CN(C)CCN(C)C [N,N,N',N'-tetramethyl-1,2-diaminoethane]
Conditions	vapor or sublimation pressure [kPa]
294.75 K	1.766
304.74 K	3.055
314.76 K	5.055
324.95 K	8.115
334.99 K	12.53
344.96 K	19.34
354.98 K	28.12
364.97 K	40.04

CN1CCOCC1 [N-methylmorpholine]
Conditions	vapor or sublimation pressure
273.18 K	6.9 kPa
283.12 K	12.94 kPa and 12.93 kPa
293.06 K	23.06 kPa
303.04 K	39.34 kPa
313.05 K	64.46 kPa
323.08 K	101.73 kPa
333.07 K	155.32 kPa
343.08 K	230.31 kPa
353.08 K	332.76 kPa
